Six compounds from ChEMBL document CHEMBL3734719, “Discovery of highly potent triazoleantifungal agents with piperidine-oxadiazole side chains” (2015) can be followed below.

Converted amounts (≈) assume the structure as drawn.

The first experiment concerns Candida albicans. The experiment is described as follows: Antifungal activity against Candida albicans after 48 hrs by spectrophotometry. Format: functional.
Conditions: not given
For the compound `OC(CN1CCC(c2nnc(-c3ccccc3F)o2)CC1)(Cn1cncn1)c1ccc(F)cc1F` (stereo not drawn), the MIC80 (in general, the lowest concentration that inhibits either 80% of growth or 80% of the strains tested, depending on the study) was 0.125 µg/mL (≈ 0.258 µM).
The same measure, in the same setting: to `OC(Cn1cncn1)(Cn1cncn1)c1ccc(F)cc1F` [FLUCONAZOLE] belongs 0.25 µg/mL (≈ 0.816 µM); to `OC(CN1CCC(c2nc(-c3cccs3)no2)CC1)(Cn1cncn1)c1ccc(F)cc1F` (stereo not drawn), 0.063 µg/mL (≈ 0.133 µM); to `O=[N+]([O-])c1ccc(-c2nnc(C3CCN(CC(O)(Cn4cncn4)c4ccc(F)cc4F)CC3)o2)cc1` (stereo not drawn), 0.25 µg/mL (≈ 0.489 µM).
Compound `OC(CN1CCC(c2nnc(-c3ccco3)o2)CC1)(Cn1cncn1)c1ccc(F)cc1F` (stereo not drawn) showed an MIC80 of 0.125 µg/mL (≈ 0.274 µM).
Still for that read-out and setting: to `OC(CN1CCC(c2nnc(-c3c(F)cccc3F)o2)CC1)(Cn1cncn1)c1ccc(F)cc1F` (stereo not drawn) belongs 0.063 µg/mL (≈ 0.125 µM).

Another experiment has as its system Candida parapsilosis. The experiment is described as follows: Antifungal activity against Candida parapsilosis after 48 hrs by spectrophotometry. The settings on record: Lodderomyces parapsilosis. In kind it is functional.
`OC(CN1CCC(c2nnc(-c3ccccc3F)o2)CC1)(Cn1cncn1)c1ccc(F)cc1F` (stereo not drawn): the MIC80 is 0.5 µg/mL (≈ 1.03 µM).
Same read-out and setting: then `OC(Cn1cncn1)(Cn1cncn1)c1ccc(F)cc1F` [FLUCONAZOLE], with 2 µg/mL (≈ 6.53 µM); and `OC(CN1CCC(c2nc(-c3cccs3)no2)CC1)(Cn1cncn1)c1ccc(F)cc1F` (stereo not drawn), with 2 µg/mL (≈ 4.23 µM).
On the same count and under the same terms, then `O=[N+]([O-])c1ccc(-c2nnc(C3CCN(CC(O)(Cn4cncn4)c4ccc(F)cc4F)CC3)o2)cc1` (stereo not drawn), with 2 µg/mL (≈ 3.91 µM); and `OC(CN1CCC(c2nnc(-c3ccco3)o2)CC1)(Cn1cncn1)c1ccc(F)cc1F` (stereo not drawn), with 0.5 µg/mL (≈ 1.1 µM); and `OC(CN1CCC(c2nnc(-c3c(F)cccc3F)o2)CC1)(Cn1cncn1)c1ccc(F)cc1F` (stereo not drawn), with 0.5 µg/mL (≈ 0.995 µM).

The next experiment has as its system Cryptococcus neoformans. The experiment can be described thus: Antifungal activity against Cryptococcus neoformans after 48 hrs by spectrophotometry. In kind it is functional.
Conditions: not given
Take `OC(CN1CCC(c2nnc(-c3ccccc3F)o2)CC1)(Cn1cncn1)c1ccc(F)cc1F` (stereo not drawn): the MIC80 was not above 0.125 µg/mL.
On the same count and under the same terms, to `OC(Cn1cncn1)(Cn1cncn1)c1ccc(F)cc1F` [FLUCONAZOLE] belongs 0.25 µg/mL (≈ 0.816 µM); to `OC(CN1CCC(c2nc(-c3cccs3)no2)CC1)(Cn1cncn1)c1ccc(F)cc1F` (stereo not drawn), 1 µg/mL (≈ 2.12 µM); to `O=[N+]([O-])c1ccc(-c2nnc(C3CCN(CC(O)(Cn4cncn4)c4ccc(F)cc4F)CC3)o2)cc1` (stereo not drawn), 1 µg/mL (≈ 1.96 µM).
The same measure, in the same setting: then `OC(CN1CCC(c2nnc(-c3ccco3)o2)CC1)(Cn1cncn1)c1ccc(F)cc1F` (stereo not drawn), with not above 0.125 µg/mL; and `OC(CN1CCC(c2nnc(-c3c(F)cccc3F)o2)CC1)(Cn1cncn1)c1ccc(F)cc1F` (stereo not drawn), with not above 0.125 µg/mL.

The subject of another experiment is Nakaseomyces glabratus. The experiment is described as follows: Antifungal activity against Candida glabrata after 48 hrs by spectrophotometry. In kind it is functional.
Conditions: not given
In turn, `OC(CN1CCC(c2nnc(-c3ccccc3F)o2)CC1)(Cn1cncn1)c1ccc(F)cc1F` (stereo not drawn) yielded an MIC80 of 1 µg/mL (≈ 2.06 µM).
For `OC(Cn1cncn1)(Cn1cncn1)c1ccc(F)cc1F` [FLUCONAZOLE], the MIC80 is 4 µg/mL (≈ 13.1 µM).
Still for that read-out and setting: to `OC(CN1CCC(c2nc(-c3cccs3)no2)CC1)(Cn1cncn1)c1ccc(F)cc1F` (stereo not drawn) belongs 2 µg/mL (≈ 4.23 µM); to `O=[N+]([O-])c1ccc(-c2nnc(C3CCN(CC(O)(Cn4cncn4)c4ccc(F)cc4F)CC3)o2)cc1` (stereo not drawn), 4 µg/mL (≈ 7.82 µM).
The compound `OC(CN1CCC(c2nnc(-c3ccco3)o2)CC1)(Cn1cncn1)c1ccc(F)cc1F` (stereo not drawn) had an MIC80 of 0.5 µg/mL (≈ 1.1 µM).
As to `OC(CN1CCC(c2nnc(-c3c(F)cccc3F)o2)CC1)(Cn1cncn1)c1ccc(F)cc1F` (stereo not drawn), the MIC80 was determined as 0.5 µg/mL (≈ 0.995 µM).

The test system of another experiment is Aspergillus fumigatus. The experiment is described as follows: Antifungal activity against Aspergillus fumigatus after 48 hrs by spectrophotometry. In kind it is functional.
Conditions: not given
In turn, `OC(CN1CCC(c2nnc(-c3ccccc3F)o2)CC1)(Cn1cncn1)c1ccc(F)cc1F` (stereo not drawn) came in with an MIC80 of 1 µg/mL (≈ 2.06 µM).
Consider `OC(Cn1cncn1)(Cn1cncn1)c1ccc(F)cc1F` [FLUCONAZOLE], for which the MIC80 came to 4 µg/mL (≈ 13.1 µM).
Same read-out and setting: then `OC(CN1CCC(c2nc(-c3cccs3)no2)CC1)(Cn1cncn1)c1ccc(F)cc1F` (stereo not drawn), with 2 µg/mL (≈ 4.23 µM); and `O=[N+]([O-])c1ccc(-c2nnc(C3CCN(CC(O)(Cn4cncn4)c4ccc(F)cc4F)CC3)o2)cc1` (stereo not drawn), with 4 µg/mL (≈ 7.82 µM).
For `OC(CN1CCC(c2nnc(-c3ccco3)o2)CC1)(Cn1cncn1)c1ccc(F)cc1F` (stereo not drawn), the MIC80 came out at 0.5 µg/mL (≈ 1.1 µM).
Same read-out and setting: to `OC(CN1CCC(c2nnc(-c3c(F)cccc3F)o2)CC1)(Cn1cncn1)c1ccc(F)cc1F` (stereo not drawn) belongs 0.5 µg/mL (≈ 0.995 µM).

In the next experiment the test system is Trichophyton rubrum. The experiment is described as follows: Antifungal activity against Trichophyton rubrum after 48 hrs by spectrophotometry. In kind it is functional.
Conditions: not given
Compound `OC(CN1CCC(c2nnc(-c3ccccc3F)o2)CC1)(Cn1cncn1)c1ccc(F)cc1F` (stereo not drawn) showed an MIC80 of 2 µg/mL (≈ 4.13 µM).
The compound `OC(Cn1cncn1)(Cn1cncn1)c1ccc(F)cc1F` [FLUCONAZOLE] registered an MIC80 of 2 µg/mL (≈ 6.53 µM).
The same measure, in the same setting: to `OC(CN1CCC(c2nc(-c3cccs3)no2)CC1)(Cn1cncn1)c1ccc(F)cc1F` (stereo not drawn) belongs 1 µg/mL (≈ 2.12 µM).
`O=[N+]([O-])c1ccc(-c2nnc(C3CCN(CC(O)(Cn4cncn4)c4ccc(F)cc4F)CC3)o2)cc1` (stereo not drawn): the MIC80 came to 2 µg/mL (≈ 3.91 µM).
The compound `OC(CN1CCC(c2nnc(-c3ccco3)o2)CC1)(Cn1cncn1)c1ccc(F)cc1F` (stereo not drawn) displayed an MIC80 of 2 µg/mL (≈ 4.38 µM).
On the same count and under the same terms, to `OC(CN1CCC(c2nnc(-c3c(F)cccc3F)o2)CC1)(Cn1cncn1)c1ccc(F)cc1F` (stereo not drawn) belongs 2 µg/mL (≈ 3.98 µM).

Another experiment concerns Nannizzia gypsea. The experiment is described as follows: Antifungal activity against Microsporum gypseum after 48 hrs by spectrophotometry. In kind it is functional.
Conditions: not given
Turning to `OC(CN1CCC(c2nnc(-c3ccccc3F)o2)CC1)(Cn1cncn1)c1ccc(F)cc1F` (stereo not drawn), the MIC80 was determined as 2 µg/mL (≈ 4.13 µM).
Still for that read-out and setting: then `OC(Cn1cncn1)(Cn1cncn1)c1ccc(F)cc1F` [FLUCONAZOLE], with 32 µg/mL (≈ 104 µM); and `OC(CN1CCC(c2nc(-c3cccs3)no2)CC1)(Cn1cncn1)c1ccc(F)cc1F` (stereo not drawn), with 2 µg/mL (≈ 4.23 µM); and `O=[N+]([O-])c1ccc(-c2nnc(C3CCN(CC(O)(Cn4cncn4)c4ccc(F)cc4F)CC3)o2)cc1` (stereo not drawn), with 2 µg/mL (≈ 3.91 µM).
Compound `OC(CN1CCC(c2nnc(-c3ccco3)o2)CC1)(Cn1cncn1)c1ccc(F)cc1F` (stereo not drawn) showed an MIC80 of 4 µg/mL (≈ 8.76 µM).
Turning to `OC(CN1CCC(c2nnc(-c3c(F)cccc3F)o2)CC1)(Cn1cncn1)c1ccc(F)cc1F` (stereo not drawn), the MIC80 was determined as 2 µg/mL (≈ 3.98 µM). Compared with the last compound, the MIC80 is about 2-fold lower.

The next experiment concerns Candida albicans. The experiment can be described thus: Antifungal activity against fluconazole-resistant Candida albicans 103 after 48 hrs by spectrophotometry. In kind it is functional. The settings on record: Candida albicans, 103, 48 h.
On to `OC(Cn1cncn1)(Cn1cncn1)c1ccc(F)cc1F` [FLUCONAZOLE], for which the MIC50 (as a rule, the lowest concentration that inhibits either 50% of growth or 50% of the strains tested, depending on the study) was found to be 256 µg/mL (≈ 836 µM) and the MIC80 was more than 1020 µg/mL.

A further experiment relates to Candida albicans. The experiment can be described thus: Antifungal activity against fluconazole-resistant Candida albicans 805 after 48 hrs by spectrophotometry. Format: functional. The settings on record: Candida albicans, 805, 48 h.
`OC(Cn1cncn1)(Cn1cncn1)c1ccc(F)cc1F` [FLUCONAZOLE] returned an MIC50 of 256 µg/mL (≈ 836 µM) and an MIC80 of more than 1020 µg/mL.

The test system of the next experiment is Candida albicans. The experiment can be described thus: Antifungal activity against fluconazole-resistant Candida albicans 0710922 after 48 hrs by spectrophotometry. Conditions: Candida albicans, 0710922, 48 h. In kind it is functional.
`OC(Cn1cncn1)(Cn1cncn1)c1ccc(F)cc1F` [FLUCONAZOLE] yielded an MIC50 of 512 µg/mL (≈ 1670 µM) and an MIC80 of more than 1020 µg/mL.
